These results are taken from PubChem BioAssay AID1645848.

Broadly, the kinetic solubility is solubility judged after dilution from a stock solution rather than from solid.

The conditions of this data set: buffer; pH 7.4; 6.0 h; 150.0 µM.

≈ marks a conversion by molar mass, not a printed value.

In turn, `CCOc1ccc(CCNC(=O)c2cc3ccccc3n2Cc2cccc(C)n2)cc1OCC` registered a solubility (kinetic) below 1 µg/mL.

Consider `Cc1cc(C)nc(NC(=S)N2CCN(c3ccncc3)CC2)c1`, for which the solubility (kinetic) was above 48 µg/mL.

`Cc1ccc(S(=O)(=O)n2cc(C(=O)Nc3nc(-c4ccccc4)cs3)c3ccccc32)cc1` yielded a solubility (kinetic) of 2.2 µg/mL (≈ 4.65 µM).

In turn, `Nc1scc2c(C(=O)O)nn(-c3ccccc3)c(=O)c12` came in with a solubility (kinetic) of 23.9 µg/mL (≈ 83.1 µM).

As to `O=[N+]([O-])c1cccc(CNc2ccc(S(=O)(=O)Nc3nccs3)cc2)c1O`, the solubility (kinetic) was 10.3 µg/mL (≈ 25.2 µM).

For the compound `O=C(NCC1(c2nc(-c3ccccc3)cs2)CCOCC1)c1cccc(-c2noc(C(F)(F)F)n2)c1`, the kinetic solubility is 4.96 µg/mL (≈ 9.65 µM).

The compound `Cc1cccc(OCC(=O)Nc2ccc3nc(Nc4cccc(Cl)c4)cc(C)c3c2)c1` registered a kinetic solubility below 1 µg/mL.

In turn, `CC(=O)N[C@H]1CN(C2CCN(c3ccc(F)cc3C)CC2)C[C@@H]1C1CC1` gave a kinetic solubility of 20.3 µg/mL (≈ 56.4 µM).

`COc1ccc(NC(=O)c2[nH]c(C)c(C(C)=O)c2C)cc1S(=O)(=O)N(C)C` returned a kinetic solubility of 3.68 µg/mL (≈ 9.34 µM).

For `CCCCOC(=O)c1ccnc2cc(C(OCCN3CCCCC3)c3ccccc3Cl)sc12` (stereo unspecified), the solubility (kinetic) is below 1 µg/mL.

With `CC(=O)N1CCN(c2ccc(OCc3nn(C)c(C)c3-c3cccc4c(CCCOc5cc(C)c(Cl)c(C)c5)c(C(=O)O)n(Cc5cccnc5)c34)cc2)CC1`, the solubility (kinetic) was above 100 µg/mL.

In turn, `COc1ccc(-c2nc3ccccc3c(=O)n2Cc2ccco2)cc1COc1ccc(NC(C)=O)cc1` yielded a solubility (kinetic) of 2.35 µg/mL (≈ 4.74 µM).

Take `Cc1ccc(S(=O)(=O)Nc2cnccc2C(=O)Nc2ccccc2)cc1`: the kinetic solubility is above 54 µg/mL.

Compound `CC(C)(C)OC(=O)N1CCN(c2ccc(NCc3ccc(-c4ccc(C#N)cc4)o3)cc2)CC1` showed a kinetic solubility of 9.31 µg/mL (≈ 20.3 µM).

Compound `O=C(Cc1ccc(Cl)cc1)Nc1cnccc1C(=O)O` gave a kinetic solubility above 43 µg/mL.

On to `Cn1cnc(-c2nccc3c(=O)[nH]c(OCCCC(F)(F)F)nc23)c1`, for which the solubility (kinetic) was above 52 µg/mL.

Consider `COc1cc2ncnc(Oc3cccc(NC(=O)Nc4cc(C(C)(C)C(F)(F)F)on4)c3)c2cc1OC`, for which the solubility (kinetic) was 8.62 µg/mL (≈ 16.7 µM).

Consider `COc1ncccc1-c1cc2[nH]ccc2c(C(=O)NCc2c(C)cc(C)[nH]c2=O)n1`, for which the kinetic solubility turned out to be 5.75 µg/mL (≈ 14.3 µM).

`COc1ccc(CN2CCNc3cc(Nc4ccccc4)ncc3C2)cc1` returned a kinetic solubility of 45.4 µg/mL (≈ 126 µM).

Regarding `NC(=O)C1CCN(c2nc(-c3cccc(C(F)(F)F)c3)cs2)CC1`, the kinetic solubility came to 2.41 µg/mL (≈ 6.78 µM).

As for `Cc1cccc(-c2csc(N3CCC(C(N)=O)CC3)n2)c1`, the kinetic solubility is above 45 µg/mL.

For the compound `CN(C(=O)COC(=O)c1csc(NCc2ccccc2)n1)c1ccccc1`, the kinetic solubility came out at 26.4 µg/mL (≈ 69.1 µM).

Regarding `O=C(Nc1ncc(Cc2ccc(C(F)(F)F)cc2)s1)c1cnc(-c2ccccc2)o1`, the solubility (kinetic) was below 1 µg/mL.

In the case of `Cn1ccc2c(C(=O)NCc3cccnc3)nc(-c3ccccc3C#N)cc21`, the solubility (kinetic) is below 1 µg/mL.

As for `CNc1oc(-c2ccccc2-c2ccccc2)nc1C#N`, the kinetic solubility came out at 1.21 µg/mL (≈ 4.39 µM).

`O=C(Nc1nc(-c2ccccc2)cs1)c1ccncc1NS(=O)(=O)c1ccccc1F` registered a solubility (kinetic) of 38.8 µg/mL (≈ 85.4 µM).

As for `CCOC(=O)c1ccc(N2C(=O)c3n[nH]c(-c4ccco4)c3C2c2ccc(C)cc2)cc1` (stereo unspecified), the kinetic solubility stood at 1.45 µg/mL (≈ 3.38 µM). Compared with the last compound, the solubility kinetic is about 27-fold lower.

With `Cc1sc2c(c1C)C(c1ccc(Cl)cc1)=N[C@@H](CC(=O)Nc1ccc(OCCOCCOCCOCCNc3cccc4c3C(=O)N(C3CCC(=O)NC3=O)C4=O)cc1)c1nnc(C)n1-2` (stereo partly specified), the kinetic solubility is below 1 µg/mL.

On to `Oc1ccc(CNc2ccccc2C(F)(F)F)c2cccnc12`, for which the solubility (kinetic) amounted to 1.23 µg/mL (≈ 3.85 µM).

On to `Cc1noc(C)c1-c1ccc2ncnc(N3CCC(C(=O)O)CC3)c2c1`, for which the kinetic solubility was above 52 µg/mL.

With `CC(Nc1nc(N2CCN(S(C)(=O)=O)CC2)nc2ccccc12)c1ccccc1` (stereo unspecified), the solubility (kinetic) was determined as 11 µg/mL (≈ 26.8 µM).

For `CCOc1ccccc1N1CC(c2nc3ccccc3n2CCOc2ccc(C(C)(C)C)cc2)CC1=O` (stereo unspecified), the solubility (kinetic) was below 1 µg/mL.

In turn, `Cc1ncc2c(c1CNC(=O)Cn1cnc3ccccc3c1=O)CCNC2` yielded a kinetic solubility of 28.1 µg/mL (≈ 77.2 µM).

For the compound `N#Cc1nc(-c2cccc3ccccc23)oc1NC1CNC1`, the kinetic solubility was 9.62 µg/mL (≈ 33.1 µM). This solubility kinetic lies about 2.9-fold lower than the previous one.

Compound `O=C(O)C1CCN(c2ncc(-c3ccc4c(c3)OCCCO4)s2)CC1` came in with a kinetic solubility above 53 µg/mL.

In turn, `CN1C(=O)c2ccccc2[S@](=O)c2ccc(C(=O)NCCc3cccs3)cc21` showed a solubility (kinetic) of 45.9 µg/mL (≈ 112 µM).

`O=S(=O)(Nc1nccs1)c1ccc(NCc2ccccc2)cc1` registered a kinetic solubility of 31.9 µg/mL (≈ 92.4 µM).

With `CCc1ccc(NC(=O)c2cc3ncccn3n2)cc1`, the solubility (kinetic) came out at 6.75 µg/mL (≈ 25.3 µM).

In the case of `CCOC(=O)N1CCc2c(sc(NCc3sccc3C)c2C(=O)Nc2cc(Cl)ccc2OC)C1`, the kinetic solubility was below 1 µg/mL.

Regarding `CC(C)(C)c1ccc(C(=O)Nc2cn3cc(-n4ccnc4)ccc3n2)cc1`, the solubility (kinetic) is below 1 µg/mL.

For `Cc1ccc2oc(NC3=NC(c4ccccc4Cl)C4=C(CCCC4=O)N3)nc2c1` (stereo unspecified), the kinetic solubility was below 1 µg/mL.

Turning to `O=c1[nH]c(C2CCN(CC3CCCCC3)CC2)nn1Cc1ccccc1`, the kinetic solubility is above 52 µg/mL.

In turn, `CC1=Nc2cc(C(=O)NCc3ccccc3Cl)ccc2Sc2c(C)ccc(C)c21` returned a kinetic solubility below 1 µg/mL.

For `O=C(Nc1ccc(Cl)cc1)C(NS(=O)(=O)c1cccs1)c1ccccc1` (stereo unspecified), the solubility (kinetic) was below 1 µg/mL.

The compound `Fc1cnc(-c2ccccc2C(F)F)nc1NCc1ccc(-c2cccnc2)cc1` yielded a solubility (kinetic) below 1 µg/mL.

On to `O=c1c2ccccc2nc2n1CCC2`, for which the solubility (kinetic) is above 27 µg/mL.

Compound `CC(C)(O)CNc1nc(Nc2ccnc(C(F)(F)F)c2)nc(-c2cccc(C(F)(F)F)n2)n1` gave a solubility (kinetic) of 11 µg/mL (≈ 23.2 µM).

`CC(C)(C#N)c1ccc(N2C(=O)OCc3cnc4ccc(-c5cnc6ccccc6c5)cc4c32)cc1` gave a kinetic solubility below 1 µg/mL.

The compound `O=C([C@H](Cc1ccc(O[S+](=O)([O-])c2cccc3cnccc23)cc1)N[S+](=O)([O-])c1cccc2cnccc12)N1CCN(Cc2ccccc2)CC1` displayed a solubility (kinetic) below 1 µg/mL.

In turn, `Cc1ccc(-c2cc(C(=O)Nc3ccc(S(=O)(=O)NCc4nccs4)cc3)c3ccccc3n2)cc1C` registered a solubility (kinetic) of 1.66 µg/mL (≈ 3.14 µM).

Compound `COc1ccc(-n2c(C)c(C(C)=O)c3cc(O)ccc32)cc1` showed a solubility (kinetic) of 5.69 µg/mL (≈ 19.3 µM).

Compound `CN1CCN(Cc2ccc(NC(=O)Cc3ccc(Oc4cc(NC(=O)C5CC5)ncn4)cc3)cc2C(F)(F)F)CC1` gave a solubility (kinetic) of 57.3 µg/mL (≈ 101 µM).

Consider `CN([C@@H](Cc1ccc(OS(=O)(=O)c2cccc3cnccc23)cc1)C(=O)N1CCN(c2ccccc2)CC1)S(=O)(=O)c1cccc2cnccc12`, for which the kinetic solubility came to 1.32 µg/mL (≈ 1.83 µM).

Compound `CSc1cc2c(s1)c1cnn(Cc3cccc(N)c3)c(=O)c1n2C` showed a solubility (kinetic) below 1 µg/mL.

In the case of `COc1cccc(C(=O)Nc2cccc(OCc3cc(=O)n4cccc(C)c4n3)c2)c1`, the solubility (kinetic) is below 1 µg/mL.

In turn, `O=C(NCc1cccc(C(F)(F)F)c1)c1ccc(CN2CCCCC2)cc1` registered a kinetic solubility of 46.6 µg/mL (≈ 124 µM).

Regarding `O=C(NCc1ccc(S(=O)(=O)c2cccc(C(F)(F)F)c2)cc1)c1cnc2[nH]ncc2c1`, the solubility (kinetic) came out at 5.88 µg/mL (≈ 12.8 µM).

For the compound `NC(=O)C(=O)N/N=C/c1ccc([N+](=O)[O-])o1`, the kinetic solubility is above 33 µg/mL.

Compound `NC(=O)C1CCN(c2nc(-c3ccc(N)cc3)cs2)CC1` yielded a kinetic solubility above 45 µg/mL.

In the case of `CC1=C(C(=O)Nc2nnc(-c3ccccc3)s2)C(c2nn(C)cc2Cl)N=C(Nc2nc3ccccc3o2)N1` (stereo unspecified), the kinetic solubility was below 1 µg/mL.

`Cc1ccc(S(=O)(=O)Nc2ccc(F)cc2C(=O)Nc2nc(-c3ccccc3)cs2)cc1` gave a kinetic solubility below 1 µg/mL.

`COc1cc(Cl)c(C)cc1NC(=O)CSc1ncc(S(=O)(=O)c2ccc(C(C)(C)C)cc2)c(=O)[nH]1` showed a kinetic solubility below 1 µg/mL.

As for `Cc1c(CN(C)c2cc(C3CC(O)C3)nc(N)n2)[nH]c2ccccc12` (stereo unspecified), the kinetic solubility is above 50 µg/mL.

`N=c1c2c(ccn1CCc1ccccc1)Oc1ccc3ccccc3c1C2c1ccccc1` (stereo unspecified) displayed a solubility (kinetic) below 1 µg/mL.

The compound `O=C(Nc1cccc(C(F)(F)F)c1)c1cc2nc(-c3ccccc3)cc(C(F)(F)F)n2n1` showed a kinetic solubility below 1 µg/mL.

In the case of `COc1ccc(-c2ccc3ncc(Nc4ccncc4)n3n2)cc1OC`, the kinetic solubility worked out at 31.9 µg/mL (≈ 91.9 µM).

In turn, `Cc1cccc(CN2CCN(c3ccccn3)CC2)c1` yielded a kinetic solubility of 30.9 µg/mL (≈ 115 µM).

Take `Cc1cccc(-n2cnc3cc(C(=O)N4CCCCC4)ccc32)c1`: the solubility (kinetic) is above 47 µg/mL.

`C[C@@H]1C(=O)O[C@H]2[C@H]1CC[C@@]1(C)Cc3sc(NS(=O)(=O)Cc4ccccc4)nc3[C@@H](C)[C@H]21`: the solubility (kinetic) was above 68 µg/mL.

`COCCNC(=O)c1ccc(-c2ccc(N3CCCCC3)nc2)cc1` gave a solubility (kinetic) of 4.58 µg/mL (≈ 13.5 µM).

On to `COc1cccc(-n2ncc3c2CCCC3NC(=O)c2ccccn2)c1` (stereo unspecified), for which the solubility (kinetic) was above 51 µg/mL.

`COc1ccc(OC)c(-n2c3c(cc(-c4nc(-c5ccc(Cl)cc5)cs4)c2=O)C(=O)CC(C)(C)C3)c1` yielded a kinetic solubility below 1 µg/mL.

Regarding `Cc1ccnc(NC(=S)N2CCN(c3ccc(Cl)cc3Cl)CC2)c1`, the kinetic solubility is 2.28 µg/mL (≈ 5.97 µM).

For `COc1cc(C(=S)N2CCN(CCO)CC2)ccc1OCc1ccc(C)cc1`, the kinetic solubility was determined as 35.9 µg/mL (≈ 89.6 µM).

With `Fc1cc(Nc2nc(-c3ccncc3)nc3ccccc23)ccc1-c1ccc2[nH]ncc2c1`, the kinetic solubility was below 1 µg/mL.

`Cc1ccc(/C=C/c2nc3ccccc3n2S(=O)(=O)c2ccc(Br)cc2)cc1` returned a kinetic solubility of 0.184 µg/mL (≈ 0.406 µM).

In the case of `c1ccc2c(NC3CCCCC3)nc(-c3ccncc3)nc2c1`, the solubility (kinetic) was below 1 µg/mL.

Compound `O=c1c2c([nH]c3ccc(Br)cc13)CCCC2` yielded a kinetic solubility of 4.86 µg/mL (≈ 17.5 µM).

For `COc1ccc(-n2nc(C3CCCN([S+](=O)([O-])c4cccc(C(F)(F)F)c4)C3)[nH]c2=O)cc1` (stereo unspecified), the kinetic solubility is below 1 µg/mL.

As to `COc1ccc(-n2c(C)c(C(C)=O)c3cc(OC(=O)COc4ccccc4)ccc32)cc1`, the kinetic solubility was below 1 µg/mL.

In turn, `CCOc1ccc(-c2nc(SCC(=O)Nc3ccc(C)c(C)c3)n3[nH]c(=O)cc3n2)cc1` showed a kinetic solubility below 1 µg/mL.

For `CN(C)c1ccccc1-c1csc(N2CCC(C(N)=O)CC2)n1`, the solubility (kinetic) is above 49 µg/mL.

In the case of `O=C(O)c1c(Sc2ccccc2)c2cc(Cl)ccc2n1Cc1ccc(Cl)cc1`, the solubility (kinetic) is above 63 µg/mL.

Compound `O=C(Nc1nnc(C2CCCCC2)s1)c1ccc(Br)s1` came in with a solubility (kinetic) below 1 µg/mL.

As for `Cc1cc(Oc2ccc(N)cn2)ccc1Cl`, the kinetic solubility is above 35 µg/mL.

Consider `COc1cc(-c2nc(-c3ccccc3)c(-c3cccs3)[nH]2)cc(OC)c1O`, for which the kinetic solubility is below 1 µg/mL.
